The source made the active and inactive calls.
Key:
[1] = molecular target: T1, Mannose-6-phosphate isomerase (Homo sapiens, UniProt P34949); assay: inhibitors of human PMI, primary screen, biochemical, fluorescence intensity, coupled assay (AID 1209)
T1 sequence (P34949 whole entry): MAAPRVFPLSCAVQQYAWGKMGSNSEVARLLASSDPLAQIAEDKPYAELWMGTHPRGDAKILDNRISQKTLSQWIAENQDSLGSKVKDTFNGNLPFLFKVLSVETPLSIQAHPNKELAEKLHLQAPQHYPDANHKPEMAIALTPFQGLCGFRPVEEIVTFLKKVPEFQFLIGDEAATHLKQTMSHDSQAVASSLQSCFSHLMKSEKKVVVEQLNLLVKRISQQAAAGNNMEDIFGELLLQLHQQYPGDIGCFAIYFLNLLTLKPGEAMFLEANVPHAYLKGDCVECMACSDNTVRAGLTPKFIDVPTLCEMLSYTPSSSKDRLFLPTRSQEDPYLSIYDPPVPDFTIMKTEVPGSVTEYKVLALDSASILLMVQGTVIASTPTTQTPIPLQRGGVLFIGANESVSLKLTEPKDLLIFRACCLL

Aspartyl aminopeptidase = molecular target: T2, Aspartyl aminopeptidase (Plasmodium falciparum 3D7, UniProt Q8I2J3); assay: Counterscreen for inhibitors of M1 and M17 aminopeptidases: QFRET-based biochemical high throughput dose response assay for inhibitors of the Plasmodium falciparum M18 Aspartyl Aminopeptidase (PFM18AAP). [Related PubChem assays: 1619 (Screening assay (M17LAP inhibitors).), 1445 (Screening assay (M1AAP inhibitors).)]
T2 sequence (Q8I2J3 whole entry): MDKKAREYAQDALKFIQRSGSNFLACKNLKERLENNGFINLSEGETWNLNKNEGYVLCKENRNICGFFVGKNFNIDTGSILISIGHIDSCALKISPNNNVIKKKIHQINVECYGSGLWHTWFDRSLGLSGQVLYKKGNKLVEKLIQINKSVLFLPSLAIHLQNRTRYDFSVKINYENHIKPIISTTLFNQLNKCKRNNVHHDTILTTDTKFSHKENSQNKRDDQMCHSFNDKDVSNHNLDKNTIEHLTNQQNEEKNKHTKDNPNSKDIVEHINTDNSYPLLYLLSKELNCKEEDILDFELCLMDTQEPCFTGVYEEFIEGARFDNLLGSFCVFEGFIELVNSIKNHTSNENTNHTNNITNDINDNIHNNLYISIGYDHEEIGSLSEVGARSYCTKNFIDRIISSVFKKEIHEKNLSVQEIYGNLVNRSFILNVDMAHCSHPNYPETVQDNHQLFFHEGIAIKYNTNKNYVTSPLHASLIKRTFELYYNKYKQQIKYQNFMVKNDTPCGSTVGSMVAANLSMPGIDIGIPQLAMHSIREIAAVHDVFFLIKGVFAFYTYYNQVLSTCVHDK

Leucine aminopeptidase = molecular target: T3, Leucine aminopeptidase (Plasmodium falciparum 3D7, UniProt Q8IL11); assay: P. falciparum M17LAP inhibitors, primary screen, biochemical, fluorogenic H-Leu-NHMec substrate, 1536-well (AID 1619); format: functional
T3 sequence (Q8IL11 whole entry): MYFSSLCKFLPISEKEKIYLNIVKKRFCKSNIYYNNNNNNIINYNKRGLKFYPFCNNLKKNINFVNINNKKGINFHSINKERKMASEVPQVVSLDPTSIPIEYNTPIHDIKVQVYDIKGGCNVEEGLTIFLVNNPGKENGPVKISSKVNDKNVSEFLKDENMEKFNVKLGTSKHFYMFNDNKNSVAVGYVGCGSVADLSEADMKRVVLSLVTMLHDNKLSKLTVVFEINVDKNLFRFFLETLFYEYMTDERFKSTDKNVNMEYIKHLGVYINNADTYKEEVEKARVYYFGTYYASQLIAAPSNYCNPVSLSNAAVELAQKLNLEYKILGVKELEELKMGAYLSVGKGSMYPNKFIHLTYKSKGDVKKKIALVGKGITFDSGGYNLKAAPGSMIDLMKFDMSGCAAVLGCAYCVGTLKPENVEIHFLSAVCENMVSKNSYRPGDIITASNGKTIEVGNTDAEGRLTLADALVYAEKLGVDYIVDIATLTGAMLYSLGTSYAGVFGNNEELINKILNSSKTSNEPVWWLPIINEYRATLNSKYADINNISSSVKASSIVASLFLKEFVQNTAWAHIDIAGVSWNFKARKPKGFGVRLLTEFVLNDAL

Procathepsin L = Procathepsin L (Homo sapiens, UniProt P07711); assay: cathepsin L inhibitors, dose response, counter-screen for M1/M17 aminopeptidase inhibitor project, biochemical, QFRET, 1536-well (AID 2214)
Sequence of Procathepsin L (P07711 whole entry): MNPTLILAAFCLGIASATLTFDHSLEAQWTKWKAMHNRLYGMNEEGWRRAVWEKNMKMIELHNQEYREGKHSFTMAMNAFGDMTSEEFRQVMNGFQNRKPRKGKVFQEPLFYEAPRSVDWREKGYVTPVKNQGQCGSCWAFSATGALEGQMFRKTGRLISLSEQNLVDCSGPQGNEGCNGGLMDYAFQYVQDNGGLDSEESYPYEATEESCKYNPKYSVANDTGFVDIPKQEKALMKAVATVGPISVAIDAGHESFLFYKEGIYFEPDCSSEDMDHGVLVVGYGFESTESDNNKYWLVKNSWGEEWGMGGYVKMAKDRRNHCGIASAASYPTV

[2] = A cytotoxicity screen of small molecule inhibitors of the PhoP region in Salmonella typhi identified in the primary screen. [Related pubchem assays: 1850, 1864, 1985 ]; format: functional
[3] = HEp-2 cell cytotoxicity, dose response, cytotoxicity control for RSV inhibitor project, HTS (AID 2410); format: functional; conditions: human respiratory syncytial virus
cells [4] = assay: cells
Estrogen receptor = molecular target: T4, Estrogen receptor (Homo sapiens, UniProt P03372);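 further: potency for inhibiting coactivator peptide recruitment to the receptor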
T4 sequence (P03372 whole entry): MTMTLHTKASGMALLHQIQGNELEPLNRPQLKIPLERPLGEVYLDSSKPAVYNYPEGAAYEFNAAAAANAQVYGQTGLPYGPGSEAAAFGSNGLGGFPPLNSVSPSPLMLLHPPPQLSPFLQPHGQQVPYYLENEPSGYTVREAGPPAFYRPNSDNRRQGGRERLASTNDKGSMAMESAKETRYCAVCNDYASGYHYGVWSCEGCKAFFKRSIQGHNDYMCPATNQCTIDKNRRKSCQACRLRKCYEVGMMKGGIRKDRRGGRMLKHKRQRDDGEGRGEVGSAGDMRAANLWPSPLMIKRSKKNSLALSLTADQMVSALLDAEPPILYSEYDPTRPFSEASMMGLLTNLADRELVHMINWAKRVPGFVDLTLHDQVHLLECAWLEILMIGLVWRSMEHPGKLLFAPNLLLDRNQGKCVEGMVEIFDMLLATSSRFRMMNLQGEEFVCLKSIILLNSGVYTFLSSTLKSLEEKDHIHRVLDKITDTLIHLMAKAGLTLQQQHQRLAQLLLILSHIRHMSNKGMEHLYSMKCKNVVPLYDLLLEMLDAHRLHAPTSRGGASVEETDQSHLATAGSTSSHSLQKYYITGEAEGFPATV

HT-1080 = assay: cytotoxicity in HT1080 fibrosarcoma cells, cell-based, fluorescence readout (AID 620); format: functional; conditions: Homo sapiens
[5] = cytotoxicity toward NIH3T3 fibroblasts, dose response, counter-screen, cell-based, ATP luminescence, mouse fibroblasts (AID 2010); format: functional;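 further: cells exposed to compound for about 90 hours before reading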
[6] = inhibitors of intracellular T. cruzi replication, confirmation, NIH3T3 host cells, beta-gal luminescence (AID 2044); format: functional, cell-based;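 further: intracellular parasites grown in NIH/3T3 mouse fibroblasts as host cells; luminescent beta-galactosidase reporter signal from transgenic T. cruzi replicating inside host cells; inhibitors lower the luminescence signal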
cells [7] = assay: cells; remark: listed apart in the source
Large T antigen = Large T antigen (Simian virus 40, UniProt P03070); format: functional, Betapolyomavirus macacae;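 further: Confirmatory-stage PubChem screen for compounds that inhibit SV40 T antigen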
Sequence of Large T antigen (P03070 whole entry): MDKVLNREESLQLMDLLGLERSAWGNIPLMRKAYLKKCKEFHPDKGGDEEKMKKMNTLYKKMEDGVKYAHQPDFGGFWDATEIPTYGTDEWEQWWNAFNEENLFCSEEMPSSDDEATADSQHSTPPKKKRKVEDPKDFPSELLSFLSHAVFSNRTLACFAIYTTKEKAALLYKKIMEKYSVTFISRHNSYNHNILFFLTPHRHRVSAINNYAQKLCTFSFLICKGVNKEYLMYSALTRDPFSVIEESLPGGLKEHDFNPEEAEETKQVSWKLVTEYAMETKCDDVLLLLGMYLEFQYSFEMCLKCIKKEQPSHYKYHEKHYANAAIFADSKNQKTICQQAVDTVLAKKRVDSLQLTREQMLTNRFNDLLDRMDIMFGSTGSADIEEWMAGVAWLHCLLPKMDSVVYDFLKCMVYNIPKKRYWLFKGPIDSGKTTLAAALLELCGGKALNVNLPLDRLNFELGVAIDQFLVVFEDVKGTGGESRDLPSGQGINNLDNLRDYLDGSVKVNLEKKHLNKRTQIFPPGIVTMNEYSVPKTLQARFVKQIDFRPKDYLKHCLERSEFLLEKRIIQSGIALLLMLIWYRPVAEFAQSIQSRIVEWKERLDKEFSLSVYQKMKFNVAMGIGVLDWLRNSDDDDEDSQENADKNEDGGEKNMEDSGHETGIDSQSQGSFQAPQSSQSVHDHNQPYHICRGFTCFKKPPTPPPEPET

[8] = microbe, parasite or virus in culture; format: functional; conditions: Mycobacterium tuberculosis
BJ [9] = assay: cytotoxicity toward BJ-TERT fibroblasts, dose response, cell-based, RAS-independent, luminescence (AID 1933); format: functional; conditions: Homo sapiens
[10] = molecular target: T5, Calpain-2 catalytic subunit (Sus scrofa, UniProt P43367); assay: pig calpain II inhibitor potency, dose response, biochemical, fluorogenic peptide substrate (AID 1420); format: functional
T5 sequence (P43367 whole entry): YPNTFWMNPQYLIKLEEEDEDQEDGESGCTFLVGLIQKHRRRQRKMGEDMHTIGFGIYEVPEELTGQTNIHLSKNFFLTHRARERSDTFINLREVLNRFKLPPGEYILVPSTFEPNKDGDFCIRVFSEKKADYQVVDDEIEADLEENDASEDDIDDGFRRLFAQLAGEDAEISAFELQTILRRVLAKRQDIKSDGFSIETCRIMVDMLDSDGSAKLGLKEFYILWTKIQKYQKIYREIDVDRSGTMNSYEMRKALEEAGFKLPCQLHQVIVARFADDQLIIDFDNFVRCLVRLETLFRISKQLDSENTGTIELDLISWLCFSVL

[11] = Shn3 3'UTR reporter inhibitors, dose response, cell-based, Clone20 osteoblasts, firefly luciferase, cherry-picked (AID 624132); format: functional;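 further: firefly luciferase luminescence from reporter carrying the Shn3 3'UTR in osteoblasts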
[12] = growth suppression of beta-catenin-knockout colon cells, dose response, cell-based, HCT116, human colon tumor (AID 1045); format: functional;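 further: HCT116 colon tumor cells with beta catenin knocked out; cells exposed to compound for 60 hours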
[13] = growth suppression of PTEN-null colon cells, dose response, cell-based, HCT116 PTEN knockout (AID 1047); format: functional;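 further: HCT116 colon tumor cells with PTEN knocked out; cells exposed to compound for 60 hours before readout; potency for loss of cell viability measured by luminescence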
INS1 = assay: beta cell apoptosis inhibitors, cytokine rescue, dose response, luminescence, retest (AID 449756); format: functional, cell-based; conditions: Rattus norvegicus;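 further: cell death triggered by IL-1 beta plus TNF-alpha plus IFN-gamma mixture; protective hits raise ATP signal compared with cytokine alone wells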
BJ [14] = assay: cytotoxicity toward BJ-TERT-LT-ST fibroblasts, dose response, cell-based, RAS-independent, luminescence (AID 1935); format: functional; conditions: Homo sapiens;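 further: BJ fibroblasts immortalized with TERT plus LT and ST oncogenes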
[15] = cytotoxicity toward DRD oncogenic fibroblasts, dose response, cell-based, non-viral oncogenic, luminescence (AID 1934); format: functional; conditions: Homo sapiens
[16] = control 3'UTR Renilla luciferase suppression, dose response, counter-screen for Shn3 inhibitor project, cell-based, Clone20-Shn3RL, cherry-picked (AID 624133); format: functional
Jurkat = assay: antigen receptor-induced NF-kB inhibitors, dose response, Jurkat, luciferase reporter, luminescence, B- and T-cell (AID 489004); format: functional, cell-based; conditions: Homo sapiens;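 further: NF-kB luciferase reporter Jurkat cells stimulated with PMA plus ionomycin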
[17] = molecular target: Voltage-dependent T-type calcium channel subunit alpha-1H (Homo sapiens, UniProt O95180); format: functional;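 further: channel activity triggered by adding a high calcium stimulation buffer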
Sequence of Voltage-dependent T-type calcium channel subunit alpha-1H (O95180 whole entry): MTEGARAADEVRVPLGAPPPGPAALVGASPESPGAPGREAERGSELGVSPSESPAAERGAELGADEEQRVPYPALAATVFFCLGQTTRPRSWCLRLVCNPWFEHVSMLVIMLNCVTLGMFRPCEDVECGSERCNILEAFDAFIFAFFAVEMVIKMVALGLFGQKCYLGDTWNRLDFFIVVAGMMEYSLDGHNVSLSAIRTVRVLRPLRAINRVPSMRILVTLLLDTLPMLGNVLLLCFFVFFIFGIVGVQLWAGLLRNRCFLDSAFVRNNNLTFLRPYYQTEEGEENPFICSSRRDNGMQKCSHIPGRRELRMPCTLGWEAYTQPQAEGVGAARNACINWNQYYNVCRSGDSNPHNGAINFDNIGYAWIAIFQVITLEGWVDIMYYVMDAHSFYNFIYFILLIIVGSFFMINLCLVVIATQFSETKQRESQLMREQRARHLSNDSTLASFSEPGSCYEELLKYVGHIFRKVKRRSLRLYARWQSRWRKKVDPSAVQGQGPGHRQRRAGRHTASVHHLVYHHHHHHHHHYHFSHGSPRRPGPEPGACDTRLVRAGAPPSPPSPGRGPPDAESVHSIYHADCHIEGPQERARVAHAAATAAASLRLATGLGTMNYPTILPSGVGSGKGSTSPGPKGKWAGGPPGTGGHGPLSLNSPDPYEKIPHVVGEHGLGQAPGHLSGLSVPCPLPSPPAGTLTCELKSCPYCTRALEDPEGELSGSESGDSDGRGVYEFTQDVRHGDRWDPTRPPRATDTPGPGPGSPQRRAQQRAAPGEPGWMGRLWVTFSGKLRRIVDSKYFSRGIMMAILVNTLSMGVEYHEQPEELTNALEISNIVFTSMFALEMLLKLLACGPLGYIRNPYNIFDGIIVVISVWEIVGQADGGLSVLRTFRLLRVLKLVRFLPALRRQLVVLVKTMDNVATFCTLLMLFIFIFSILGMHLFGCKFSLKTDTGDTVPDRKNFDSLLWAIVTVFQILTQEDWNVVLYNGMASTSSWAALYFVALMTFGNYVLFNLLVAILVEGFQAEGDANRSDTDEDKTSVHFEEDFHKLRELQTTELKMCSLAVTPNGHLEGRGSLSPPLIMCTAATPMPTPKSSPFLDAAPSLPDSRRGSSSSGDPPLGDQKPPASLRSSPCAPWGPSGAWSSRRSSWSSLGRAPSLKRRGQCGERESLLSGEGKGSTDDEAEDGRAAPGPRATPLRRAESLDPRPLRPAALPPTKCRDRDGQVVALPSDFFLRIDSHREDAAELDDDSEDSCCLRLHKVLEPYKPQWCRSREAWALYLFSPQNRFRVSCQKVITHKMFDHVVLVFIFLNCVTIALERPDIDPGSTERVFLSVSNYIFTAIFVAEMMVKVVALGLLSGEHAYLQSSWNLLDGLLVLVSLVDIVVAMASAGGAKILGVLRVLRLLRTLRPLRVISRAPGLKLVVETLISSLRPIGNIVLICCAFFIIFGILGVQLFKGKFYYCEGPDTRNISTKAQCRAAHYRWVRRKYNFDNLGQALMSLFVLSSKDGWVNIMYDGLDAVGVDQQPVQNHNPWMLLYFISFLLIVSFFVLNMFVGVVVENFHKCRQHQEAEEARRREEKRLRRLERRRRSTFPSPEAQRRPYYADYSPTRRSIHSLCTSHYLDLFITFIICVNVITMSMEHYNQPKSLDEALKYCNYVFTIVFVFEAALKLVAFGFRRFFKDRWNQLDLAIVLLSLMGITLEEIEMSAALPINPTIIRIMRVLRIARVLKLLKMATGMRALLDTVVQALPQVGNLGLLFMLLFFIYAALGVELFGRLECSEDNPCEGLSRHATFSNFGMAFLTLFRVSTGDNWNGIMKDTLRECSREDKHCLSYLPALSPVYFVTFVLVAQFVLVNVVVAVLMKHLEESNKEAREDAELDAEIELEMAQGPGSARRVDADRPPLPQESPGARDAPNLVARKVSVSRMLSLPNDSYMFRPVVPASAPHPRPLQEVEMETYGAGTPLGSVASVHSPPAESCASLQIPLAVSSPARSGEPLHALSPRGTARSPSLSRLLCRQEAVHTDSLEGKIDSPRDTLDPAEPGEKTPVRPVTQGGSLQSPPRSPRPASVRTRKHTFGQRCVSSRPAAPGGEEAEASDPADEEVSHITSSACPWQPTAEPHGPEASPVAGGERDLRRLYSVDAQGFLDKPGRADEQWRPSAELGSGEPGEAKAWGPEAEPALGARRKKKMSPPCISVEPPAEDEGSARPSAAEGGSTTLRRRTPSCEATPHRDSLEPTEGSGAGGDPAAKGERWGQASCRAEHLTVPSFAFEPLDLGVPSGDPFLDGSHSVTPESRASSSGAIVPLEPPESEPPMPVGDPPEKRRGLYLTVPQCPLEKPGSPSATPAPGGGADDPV

[18] = HepG2 cell cytotoxicity, dose response, cytotoxicity control for Shn3 inhibitor project, CellTiter-Glo, cherry-picked (AID 624134); format: functional, cell-based
[19] = molecular target: Sphingosine 1-phosphate receptor 2 (Homo sapiens, UniProt O95136); assay: Dose Response Cell Based Assay for Antagonists of the S1P2 Receptor. [Related pubchem assays: 856, 736 ]; format: functional
Sequence of Sphingosine 1-phosphate receptor 2 (O95136 whole entry): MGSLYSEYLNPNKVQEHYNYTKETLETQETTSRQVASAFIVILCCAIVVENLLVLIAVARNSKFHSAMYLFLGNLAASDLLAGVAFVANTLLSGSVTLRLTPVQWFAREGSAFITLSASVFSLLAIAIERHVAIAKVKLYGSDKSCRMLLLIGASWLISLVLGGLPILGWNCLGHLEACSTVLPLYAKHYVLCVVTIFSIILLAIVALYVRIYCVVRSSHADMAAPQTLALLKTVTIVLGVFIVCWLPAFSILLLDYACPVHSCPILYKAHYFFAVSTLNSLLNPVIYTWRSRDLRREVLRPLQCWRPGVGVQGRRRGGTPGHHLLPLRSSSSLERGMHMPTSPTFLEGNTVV

BJ [20] = assay: cells; format: functional, cell-based; conditions: Homo sapiens
[21] = cytotoxicity in HEK-293T NF-kB-Luc cells, dose response, cytotoxicity control for B/T-cell NF-kB inhibitor project, cell-based, uHTS hits (AID 489019); format: functional;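 further: IC50 reflects cytotoxicity as loss of cell viability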

Cn1c(=O)c([N+](=O)[O-])c(Oc2ccccc2)c2ccccc21
IC50 [1]: > 50 µM (not active)

Cc1ccc(-n2c(C)cc(C(=O)COC(=O)c3ccc[nH]c3=O)c2C)cc1C
IC50 (Aspartyl aminopeptidase): > 73.5 µM (not active) | IC50 (Leucine aminopeptidase): 1.45 µM (active) | IC50 (Procathepsin L): > 59.6 µM (not active)

CC1=C(C)CC(C(=O)Nc2cccc([N+](=O)[O-])c2)C(C(=O)O)C1 (centres undefined)
IC50 (Aspartyl aminopeptidase): > 73.5 µM (not active) | IC50 (Leucine aminopeptidase): 6.42 µM (active) | IC50 (Procathepsin L): > 59.6 µM (not active)

O=C(CSc1nccc(O)n1)Nc1ccc(Br)c(Cl)c1
IC50 (Aspartyl aminopeptidase): > 73.5 µM (not active) | IC50 (Leucine aminopeptidase): 2.5 µM (active) | IC50 (Procathepsin L): > 59.6 µM (not active)

Cc1cc(N=Nc2ccccc2)c(NCC(O)C(O)C(O)CO)cc1C (centres undefined)
EC50 [2]: > 50 µM (active)

CC(=O)c1ccc2c(c1)C1C=CCC1C(c1ccc(S(=O)(=O)N3CCOCC3)cc1)N2 (centres undefined)
CC50 [3]: 17.2 µM (active) | IC50 (cells [4]): 22.5 µM (active)

COc1ccc(Cl)cc1NC(=O)c1oc(C)nc1C
IC50 (Estrogen receptor): > 50 µM (not active)

O=C(CSc1nnc(-c2cccnc2)n1Cc1ccco1)c1ccc2ccccc2c1
EC50 [2]: > 50 µM (active)

N#Cc1nc(-c2ccc(OCc3ccc(Cl)cc3)cc2)oc1NCc1cccnc1
IC50 (Estrogen receptor): 37.4 µM (not active)

O=C(NC1=NC2CCCCC2N1)c1ccccc1 (centres undefined)
EC50 (HT-1080): > 50 µM (not active)

Cc1ccc(/C=C2\SC(=S)N(c3cccnc3)C2=O)o1
EC50 [5]: > 60 µM (not active) | EC50 [2]: > 50 µM (active) | EC50 [6]: 2.36 µM (active)

COc1cc(CN(C)CCc2ccccc2)ccc1OCc1ccccc1
EC50 [5]: 19.1 µM (active) | EC50 (cells [7]): 6 nM (active) | EC50 [6]: < 0.1 µM (active)

COc1ccccc1N1CCN(/N=C/c2ccc(O)c(O)c2)CC1
IC50 [1]: > 50 µM (not active) | IC50 (Large T antigen): 15 µM (active)

C/C(N)=C(/C#N)C(=O)CSc1cc(C)c2cc(C)cc(C)c2n1
EC50 [5]: > 60 µM (not active) | EC50 [6]: 4.13 µM (active) | IC50 (cells [4]): 12 µM (active)

N#CC(c1cccc(Cl)c1)c1ccc2c(C(F)(F)F)cc(C(F)(F)F)nc2n1 (centres undefined)
CC50 [8]: < 160 nM (active) | EC50 (BJ [9]): 2.77 µM (active) | IC50 [10]: 6.77 µM (not active) | AC50 [11]: 689 nM (active) | EC50 [12]: 267 nM (active) | EC50 [13]: 235 nM (active) | AC50 (INS1): 881 nM (active) | EC50 (BJ [14]): 6.56 µM (active) | EC50 [15]: 3.04 µM (active) | AC50 [16]: 540 nM (active) | IC50 (Jurkat): 34.5 µM (inactive) | EC50 [17]: 3.85 µM (active) | AC50 [18]: 805 nM (active) | IC50 [19]: 922 nM (active) | EC50 (BJ [20]): 3.68 µM (inconclusive) | IC50 [21]: > 80 µM (inactive)

Source: ChEMBL document CHEMBL1201862, “PubChem BioAssay data set” (2004)
